Laboratory results as given in ChEMBL document CHEMBL1201862, “PubChem BioAssay data set” (2004).
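Briefly, cells in 96-well plates were exposed to five compound concentrations for 48 h, and endpoints were estimated by linear interpolation. GI50 marks 50% less growth.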 Activity calls are given as the source filed them. No stated cut-off is given here; in the data, active = GI50 up to about 1.1 µM and inactive = higher.

Key:
Test in all cases: DTP human tumour cell line panel, 48 h
ACHN = system: ACHN
EKVX = system: EKVX
HCC 2998 = system: HCC 2998
HCT-116 = system: HCT-116
HCT-15 = system: HCT-15
M14 = system: M14
MDA-MB-231 = system: MDA-MB-231
Malme-3M = system: Malme-3M
NCI-H522 = system: NCI-H522
NCI/ADR-RES = system: NCI/ADR-RES
OVCAR-5 = system: OVCAR-5
OVCAR-8 = system: OVCAR-8
SK-MEL-2 = system: SK-MEL-2
SN12C = system: SN12C
SR = system: SR
SW-620 = system: SW-620
TK-10 = system: TK-10
U-251 = system: U-251
UO-31 = system: UO-31
CCRF-CEM = system: CCRF-CEM

Row | SMILES | GI50 (ACHN) | GI50 (EKVX) | GI50 (HCC 2998) | GI50 (HCT-116) | GI50 (HCT-15) | GI50 (M14) | GI50 (MDA-MB-231) | GI50 (Malme-3M) | GI50 (NCI-H522) | GI50 (NCI/ADR-RES) | GI50 (OVCAR-5) | GI50 (OVCAR-8) | GI50 (SK-MEL-2) | GI50 (SN12C) | GI50 (SR) | GI50 (SW-620) | GI50 (TK-10) | GI50 (U-251) | GI50 (UO-31) | GI50 (CCRF-CEM)
1 | CCC1c2[nH]c3ccccc3c2C[C@H]2C(=O)NC(C)C(=O)N12 (stereo partly drawn) | > 100 µM (inactive) | > 100 µM (inactive) | > 100 µM (inactive) | > 100 µM (inactive) | > 100 µM | > 100 µM (inactive) | > 100 µM (inactive) | > 100 µM (inactive) | > 100 µM (inactive) | > 100 µM (inactive) | > 100 µM (inactive) | > 100 µM (inactive) | > 100 µM (inactive) | > 100 µM (inactive) | > 100 µM (inactive) | > 100 µM (inactive) | > 100 µM (inactive) | > 100 µM (inactive) | > 100 µM (inactive) | –
2 | NC(=O)/N=C(\N)NC(=O)c1ccccc1 | > 100 µM (inactive) | > 100 µM (inactive) | > 100 µM (inactive) | > 100 µM (inactive) | > 100 µM | > 100 µM (inactive) | > 100 µM (inactive) | > 100 µM (inactive) | > 100 µM (inactive) | > 100 µM (inactive) | > 100 µM (inactive) | > 100 µM (inactive) | > 100 µM (inactive) | > 100 µM (inactive) | > 100 µM (inactive) | > 100 µM (inactive) | > 100 µM (inactive) | > 100 µM (inactive) | > 100 µM (inactive) | –
3 | COc1ccc(/C=N/NC(=O)O)cc1 | > 100 µM (inactive) | > 100 µM (inactive) | 88.5 µM (inactive) | > 100 µM (inactive) | > 100 µM | > 100 µM (inactive) | > 100 µM (inactive) | > 100 µM (inactive) | > 100 µM (inactive) | > 100 µM (inactive) | > 100 µM (inactive) | – | > 100 µM (inactive) | > 100 µM (inactive) | > 100 µM (inactive) | > 100 µM (inactive) | > 100 µM (inactive) | > 100 µM (inactive) | > 100 µM (inactive) | –
4 | CCOC(=O)C1(Cc2c[nH]c3ccccc23)C(O)CCCN1C(C)=O (stereo not drawn) | > 100 µM (inactive) | > 100 µM (inactive) | > 100 µM (inactive) | > 100 µM (inactive) | > 100 µM | > 100 µM (inactive) | > 100 µM (inactive) | > 100 µM (inactive) | – | > 100 µM (inactive) | > 100 µM (inactive) | > 100 µM (inactive) | > 100 µM (inactive) | – | 81.5 µM (inactive) | > 100 µM (inactive) | > 100 µM (inactive) | > 100 µM (inactive) | > 100 µM (inactive) | > 100 µM (inactive)
5 | COc1ccc2nc3c([N+](=O)[O-])ccc(NCCCN(C)C)c3c(N)c2c1 | 1.14 µM (inactive) | 1.74 µM (inactive) | – | 0.316 µM (active) | 1.3 µM | 1.9 µM (inactive) | 1.28 µM (inactive) | 1.42 µM (inactive) | 0.474 µM (active) | 1.64 µM (inactive) | 1.43 µM (inactive) | 1.75 µM (inactive) | 2.39 µM (inactive) | 1.6 µM (inactive) | 0.721 µM (active) | 0.405 µM (active) | 1.62 µM (inactive) | 1.57 µM (inactive) | 2.14 µM (inactive) | 0.245 µM (active)
6 | NC1CC(=O)c2c(Br)csc21 (stereo not drawn) | 52 µM (inactive) | 67.6 µM (inactive) | 19.2 µM (inactive) | 46.8 µM (inactive) | 35.4 µM | > 100 µM (inactive) | > 100 µM (inactive) | 46.8 µM (inactive) | – | > 100 µM (inactive) | 63.7 µM (inactive) | 42.9 µM (inactive) | 41 µM (inactive) | 27 µM (inactive) | 46.6 µM (inactive) | 30.2 µM (inactive) | 32.5 µM (inactive) | 10 µM (inactive) | 33 µM (inactive) | 42.7 µM (inactive)
7 | O=P1(N(CCCl)CCCl)Oc2c(Cl)cc(Cl)c(Cl)c2Cc2c(Cl)c(Cl)cc(Cl)c2O1 | 51.1 µM (inactive) | 92.3 µM (inactive) | 25.2 µM (inactive) | 27.9 µM (inactive) | 48 µM | 75.3 µM (inactive) | 42.4 µM (inactive) | – | 31 µM (inactive) | 45 µM (inactive) | 30.8 µM (inactive) | 55.1 µM (inactive) | 22 µM (inactive) | 61.9 µM (inactive) | 35.2 µM (inactive) | 47.4 µM (inactive) | 25 µM (inactive) | 96.6 µM (inactive) | 48.4 µM (inactive) | 29.2 µM (inactive)
8 | C[N+]1([O-])[C@H]2CC(OC(=O)[C@H](CO)c3ccccc3)C[C@H]1[C@H]1O[C@H]12 (stereo partly drawn) | > 100 µM (inactive) | > 100 µM (inactive) | – | > 100 µM (inactive) | > 100 µM | > 100 µM (inactive) | > 100 µM (inactive) | > 100 µM (inactive) | > 100 µM (inactive) | > 100 µM (inactive) | > 100 µM (inactive) | > 100 µM (inactive) | > 100 µM (inactive) | > 100 µM (inactive) | > 100 µM (inactive) | > 100 µM (inactive) | > 100 µM (inactive) | > 100 µM (inactive) | > 100 µM (inactive) | 21.2 µM (inactive)
9 | COc1cc(Oc2nc3ccc(C(F)(F)F)cc3nc2-c2ccccc2)cc(OC)c1OC | 11.6 µM (inactive) | 37.8 µM (inactive) | 36.2 µM (inactive) | 10.8 µM (inactive) | > 100 µM | – | 23 µM (inactive) | 87.9 µM (inactive) | 25.1 µM (inactive) | > 100 µM (inactive) | > 100 µM (inactive) | 45.8 µM (inactive) | – | 37 µM (inactive) | 34 µM (inactive) | > 10 µM (inactive) | 30.1 µM (inactive) | 13 µM (inactive) | > 100 µM (inactive) | 48.5 µM (inactive)
10 | Fc1cccc(C2SCC3=Nc4ccccc4CN32)c1 (stereo not drawn) | 36.9 µM (inactive) | 25.4 µM (inactive) | 70.1 µM (inactive) | 27.8 µM (inactive) | 58.9 µM | 33.3 µM (inactive) | > 100 µM (inactive) | – | – | 11 µM (inactive) | 32.1 µM (inactive) | 27 µM (inactive) | 13.4 µM (inactive) | > 100 µM (inactive) | 38.6 µM (inactive) | > 100 µM (inactive) | 67.8 µM (inactive) | 58.2 µM (inactive) | 41.5 µM (inactive) | 29.9 µM (inactive)
11 | CN(C)c1ccc(/C=C/c2cc(-c3ccccc3)[n+](C)n2-c2ccccc2)cc1 | 1.44 µM (inactive) | 0.138 µM (active) | 1.64 µM (inactive) | 0.125 µM (active) | 3.61 µM | 0.617 µM (active) | 0.242 µM (active) | – | < 0.01 µM (active) | 4.5 µM (inactive) | 1.6 µM (inactive) | 0.207 µM (active) | 0.224 µM (active) | 0.293 µM (active) | 0.103 µM (active) | 0.299 µM (active) | 1.7 µM (inactive) | 0.0573 µM (active) | 1.86 µM (inactive) | 0.035 µM (active)
12 | CCOC(=O)c1csc(NC(=O)CN2CCN(c3ccccc3)CC2)n1 | > 100 µM (inactive) | > 100 µM (inactive) | > 100 µM (inactive) | – | > 100 µM | > 100 µM (inactive) | > 100 µM (inactive) | > 100 µM (inactive) | – | > 100 µM (inactive) | > 100 µM (inactive) | > 100 µM (inactive) | > 100 µM (inactive) | – | > 100 µM (inactive) | > 100 µM (inactive) | > 100 µM (inactive) | > 100 µM (inactive) | > 100 µM (inactive) | > 100 µM (inactive)
13 | CCCCP(CCCC)(CCCC)=C(C(=O)OC)C(C(=O)OC)=C1SC(C(=O)OC)=C(C(=O)OC)S1 | 22.9 µM (inactive) | 27.2 µM (inactive) | – | 12 µM (inactive) | 30.5 µM | 15.2 µM (inactive) | 17.9 µM (inactive) | 18.2 µM (inactive) | 17.7 µM (inactive) | > 10 µM (inactive) | 23 µM (inactive) | 20.7 µM (inactive) | 26.2 µM (inactive) | 15.5 µM (inactive) | 34.8 µM (inactive) | 23.4 µM (inactive) | 38.6 µM (inactive) | 16 µM (inactive) | 20.3 µM (inactive) | –
14 | Cc1ccc(OCC2=NN3C(=O)/C(=C\c4ccc([N+](=O)[O-])o4)SC3N2)cc1 (stereo not drawn) | 1.71 µM (inactive) | 12.1 µM (inactive) | – | 3.63 µM (inactive) | 2.42 µM | 8.47 µM (inactive) | 12.4 µM (inactive) | 2.66 µM (inactive) | 1.82 µM (inactive) | 9.04 µM (inactive) | 19.2 µM (inactive) | 3.66 µM (inactive) | 15.7 µM (inactive) | 16.9 µM (inactive) | 2.94 µM (inactive) | 2.93 µM (inactive) | 16.5 µM (inactive) | 15.8 µM (inactive) | 15.4 µM (inactive) | 2.99 µM (inactive)
15 | O=C(O)C(/C=C/c1ccccc1)c1ccccc1 (stereo not drawn) | > 100 µM (inactive) | > 100 µM (inactive) | – | > 100 µM (inactive) | > 100 µM | > 100 µM (inactive) | > 100 µM (inactive) | > 100 µM (inactive) | 69.7 µM (inactive) | > 100 µM (inactive) | > 100 µM (inactive) | > 100 µM (inactive) | > 100 µM (inactive) | > 100 µM (inactive) | 5.11 µM (inactive) | > 100 µM (inactive) | > 100 µM (inactive) | > 100 µM (inactive) | > 100 µM (inactive) | 14.3 µM (inactive)
